Measurements reported in article PMC7156458, “Synthetic biology based construction of biological activity-related library of fungal decalin-containing diterpenoid pyrones” (Nature Communications, 2020).

Target: Aβ42 (Homo sapiens, UniProt P05067)
Assay: Th-T (thioflavin-T) assay of Aβ42 aggregation
Format: biochemical
Conditions: for Th-T fluorescence of Aβ42 with compound, mean of three wells (Fig. 7a source data): concentration 50, unit not given

Aβ42, sequence (P05067 672-713): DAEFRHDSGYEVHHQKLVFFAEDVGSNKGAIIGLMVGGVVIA

C=C1CCC2C(C)(CCC=C(C)C)C(O)CCC2(C)C1Cc1c(OC)oc(C)c(C(=O)OC)c1=O (stereo not drawn) [Compound 14]
Th-T fluorescence of Aβ42 with compound, mean of three wells (Fig. 7a source data) (time-course reading M143): 0.7264 | Th-T fluorescence of Aβ42 with compound, mean of three wells (Fig. 7a source data) (time-course reading M144): 0.7091 | Th-T fluorescence of Aβ42 with compound, mean of three wells (Fig. 7a source data) (time-course reading M145): 0.7134 | Th-T fluorescence of Aβ42 (sheet Fig. 7a), mean of three wells (head suffix _10 (concentration 10), reading M63): 2.709 | Th-T fluorescence of Aβ42 (sheet Fig. 7a), mean of three wells (head suffix _10 (concentration 10), reading M64): 2.685 | Th-T fluorescence of Aβ42 (sheet Fig. 7a), mean of three wells (head suffix _10 (concentration 10), reading M65): 2.69 | Th-T fluorescence of Aβ42 (sheet Fig. 7a), mean of three wells (head suffix _10 (concentration 10), reading M66): 2.693 | Th-T fluorescence of Aβ42 (sheet Fig. 7a), mean of three wells (head suffix _10 (concentration 10), reading M67): 2.707 | Th-T fluorescence of Aβ42 (sheet Fig. 7a), mean of three wells (head suffix _10 (concentration 10), reading M68): 2.71 | Th-T fluorescence of Aβ42 (sheet Fig. 7a), mean of three wells (head suffix _10 (concentration 10), reading M69): 2.6808 | Th-T fluorescence of Aβ42 (sheet Fig. 7a), mean of three wells (head suffix _10 (concentration 10), reading M70): 2.69 | Th-T fluorescence of Aβ42 (sheet Fig. 7a), mean of three wells (head suffix _10 (concentration 10), reading M71): 2.719 | Th-T fluorescence of Aβ42 (sheet Fig. 7a), mean of three wells (head suffix _10 (concentration 10), reading M72): 2.755 | Th-T fluorescence of Aβ42 (sheet Fig. 7a), mean of three wells (head suffix _10 (concentration 10), reading M73): 2.763 | Th-T fluorescence of Aβ42 (sheet Fig. 7a), mean of three wells (head suffix _10 (concentration 10), reading M74): 2.748 | Th-T fluorescence of Aβ42 (sheet Fig. 7a), mean of three wells (head suffix _10 (concentration 10), reading M75): 2.779 | Th-T fluorescence of Aβ42 (sheet Fig. 7a), mean of three wells (head suffix _10 (concentration 10), reading M76): 2.777 | Th-T fluorescence of Aβ42 (sheet Fig. 7a), mean of three wells (head suffix _10 (concentration 10), reading M77): 2.827 | Th-T fluorescence of Aβ42 (sheet Fig. 7a), mean of three wells (head suffix _10 (concentration 10), reading M78): 2.836 | Th-T fluorescence of Aβ42 (sheet Fig. 7a), mean of three wells (head suffix _10 (concentration 10), reading M79): 2.796 | Th-T fluorescence of Aβ42 (sheet Fig. 7a), mean of three wells (head suffix _10 (concentration 10), reading M80): 2.789 | Th-T fluorescence of Aβ42 (sheet Fig. 7a), mean of three wells (head suffix _10 (concentration 10), reading M81): 2.809 | Th-T fluorescence of Aβ42 (sheet Fig. 7a), mean of three wells (head suffix _10 (concentration 10), reading M82): 2.8409 | Th-T fluorescence of Aβ42 (sheet Fig. 7a), mean of three wells (head suffix _10 (concentration 10), reading M83): 2.8356 | Th-T fluorescence of Aβ42 (sheet Fig. 7a), mean of three wells (head suffix _10 (concentration 10), reading M84): 2.801 | Th-T fluorescence of Aβ42 (sheet Fig. 7a), mean of three wells (head suffix _20 (concentration 20), reading M63): 2.081 | Th-T fluorescence of Aβ42 (sheet Fig. 7a), mean of three wells (head suffix _20 (concentration 20), reading M64): 2.033 | Th-T fluorescence of Aβ42 (sheet Fig. 7a), mean of three wells (head suffix _20 (concentration 20), reading M65): 2.056 | Th-T fluorescence of Aβ42 (sheet Fig. 7a), mean of three wells (head suffix _20 (concentration 20), reading M66): 1.992 | Th-T fluorescence of Aβ42 (sheet Fig. 7a), mean of three wells (head suffix _20 (concentration 20), reading M67): 2.022 | Th-T fluorescence of Aβ42 (sheet Fig. 7a), mean of three wells (head suffix _20 (concentration 20), reading M68): 2.054 | Th-T fluorescence of Aβ42 (sheet Fig. 7a), mean of three wells (head suffix _20 (concentration 20), reading M69): 2.0412 | Th-T fluorescence of Aβ42 (sheet Fig. 7a), mean of three wells (head suffix _20 (concentration 20), reading M70): 2.012 | Th-T fluorescence of Aβ42 (sheet Fig. 7a), mean of three wells (head suffix _20 (concentration 20), reading M71): 1.97 | Th-T fluorescence of Aβ42 (sheet Fig. 7a), mean of three wells (head suffix _20 (concentration 20), reading M72): 1.988 | Th-T fluorescence of Aβ42 (sheet Fig. 7a), mean of three wells (head suffix _20 (concentration 20), reading M73): 1.972 | Th-T fluorescence of Aβ42 (sheet Fig. 7a), mean of three wells (head suffix _20 (concentration 20), reading M74): 1.9541 | Th-T fluorescence of Aβ42 (sheet Fig. 7a), mean of three wells (head suffix _20 (concentration 20), reading M75): 1.951 | Th-T fluorescence of Aβ42 (sheet Fig. 7a), mean of three wells (head suffix _20 (concentration 20), reading M76): 1.9741 | Th-T fluorescence of Aβ42 (sheet Fig. 7a), mean of three wells (head suffix _20 (concentration 20), reading M77): 1.953 | Th-T fluorescence of Aβ42 (sheet Fig. 7a), mean of three wells (head suffix _20 (concentration 20), reading M78): 1.933 | Th-T fluorescence of Aβ42 (sheet Fig. 7a), mean of three wells (head suffix _20 (concentration 20), reading M79): 1.92 | Th-T fluorescence of Aβ42 (sheet Fig. 7a), mean of three wells (head suffix _20 (concentration 20), reading M80): 1.931 | Th-T fluorescence of Aβ42 (sheet Fig. 7a), mean of three wells (head suffix _20 (concentration 20), reading M81): 1.911 | Th-T fluorescence of Aβ42 (sheet Fig. 7a), mean of three wells (head suffix _20 (concentration 20), reading M82): 1.915 | Th-T fluorescence of Aβ42 (sheet Fig. 7a), mean of three wells (head suffix _20 (concentration 20), reading M83): 1.888 | Th-T fluorescence of Aβ42 (sheet Fig. 7a), mean of three wells (head suffix _20 (concentration 20), reading M84): 1.889 | Th-T fluorescence of Aβ42 (sheet Fig. 7a), mean of three wells (head suffix _50 (concentration 50), reading M63): 3.83 | Th-T fluorescence of Aβ42 (sheet Fig. 7a), mean of three wells (head suffix _50 (concentration 50), reading M64): 3.705 | Th-T fluorescence of Aβ42 (sheet Fig. 7a), mean of three wells (head suffix _50 (concentration 50), reading M65): 3.586 | Th-T fluorescence of Aβ42 (sheet Fig. 7a), mean of three wells (head suffix _50 (concentration 50), reading M66): 3.506 | Th-T fluorescence of Aβ42 (sheet Fig. 7a), mean of three wells (head suffix _50 (concentration 50), reading M67): 3.421 | Th-T fluorescence of Aβ42 (sheet Fig. 7a), mean of three wells (head suffix _50 (concentration 50), reading M68): 3.307 | Th-T fluorescence of Aβ42 (sheet Fig. 7a), mean of three wells (head suffix _50 (concentration 50), reading M69): 3.193 | Th-T fluorescence of Aβ42 (sheet Fig. 7a), mean of three wells (head suffix _50 (concentration 50), reading M70): 3.0995 | Th-T fluorescence of Aβ42 (sheet Fig. 7a), mean of three wells (head suffix _50 (concentration 50), reading M71): 3.0146 | Th-T fluorescence of Aβ42 (sheet Fig. 7a), mean of three wells (head suffix _50 (concentration 50), reading M72): 2.931
